Columns and labels:
[1] = tested on: obesity and fatty liver disease mouse model; assay: Therapeutic effects in an obesity and fatty liver disease mouse model, Example 6; assay type: in vivo, C57BL6/J male mice
Experimental: (§1) C57BL6/J male mice were purchased and kept for quarantine and acclimatization for a period of about 7 days before initiation of every experiment. Mice were housed in clean and sterilized mice cages and maintained in a controlled environment with 22+3° C. temperature, 50+20% humidity, a light/dark cycle of 12 hours each and 15-20 fresh air changes per hour.
For Obesity and NAFLD induction, the animals were fed ad libitum, either with chow diet (150SP-10, Safe Diets) or 45% high-fat diet (TD.190179, Envigo) plus 30% fructose (F0127, Sigma Aldrich) in drinking water for 20 weeks. The therapeutic effect of a daily subcutaneous injection of GP6 (20 mg/kg/day) in this mouse model was assessed for 10 weeks, starting the treatment on week 10 of the experiment until week 20.
A group of control mice (n=10) was fed with control diet and regular drinking water and a group of mice (n=30) obesity and fatty liver disease was induced for 10 weeks. At this point, mice were randomly divided in three groups of n=10, the first group was treated with daily subcutaneous injections of vehicle (water), the second group was treated with Telmisartan (5 mg/kg/day) in the drinking water and a subcutaneous injection of vehicle, and the third group with daily subcutaneous injection of GP6 (20 mg/kg/day) during 10 weeks.
At the end of the experiment mice were sacrificed, serum samples were extracted, tissues were weighted and part was fixed in paraformaldehyde for histology studies and part immediately frozen at −80 C for mRNA and protein expression studies as well as assessment of triglycerides.
The histology studies, AST and ALT measurements, TG measurements, and the RNA analysis were performed as described in Example 4.

LX-2 cells = assay: Fibrosis in LX-2 cells: Col1A1 mRNA induced by TGFβ1, Example 7; assay type: cell-based, human; conditions: 24 h
Experimental: FIG. 33. Effect of different peptides and SHBG on fibrosis in LX-2 cells.
LX-2 human hepatic stellate cells (SCC064) were maintained in DMEM supplemented with 2% fetal bovine serum and antibiotics. For experiments, LX-2 were cultured for 24 h in DMEM 0.2% FBS and treated for 24 h with vehicle or TGFβ1 (20 ng/ml) in the absence or presence of EDL6D (10 or 40 μg/ml). At the end of the experiment's cells were harvested for gene expression analysis.
Total RNA was extracted from HepG2 and LX-2 cells using TRIzol reagent (Invitrogen SA). Reverse transcription was performed at 42° C. for 50 minutes using […] of total RNA, 200 U of Superscript II, and an oligo-dT primer and reagents provided by Invitrogen. An aliquot of the reverse transcription product was amplified in a […] reaction using SYBRGreen (Invitrogen SA) with appropriate oligonucleotide primer pairs corresponding to human SHBG, ACC, FAS, ACLY, PPARG, and 18S and mouse ACC, FAS, ACLY, PPARG, Col1A1 and 18S. Results were analyzed using the 7000 Sequence Detection System program (Applied Biosystems, Thermo Fisher Scientific, Barcelona, Spain) (Shez-Lopez et al Endocrinology 2017).

[2] = tested on: CCl4-induced fibrosis mouse model; assay: Preventive effects in a CCl4-induced fibrosis mouse model, Example 5; assay type: in vivo, C57BL6/J male mice; conditions: 20 mg/kg/day sc, vs vehicle
Experimental: as §1
Preventive effect of a daily subcutaneous injection of GP6 (20 mg/kg/day) in a mouse model of fibrosis induced by twice a week intraperitoneal injection of CCl4 (1 ml/Kg diluted in olive oil 1:5) during a 4 weeks period. A group of control mice (n=6) was treated with daily subcutaneous injections of vehicle (water) and the other group (n=10) with daily subcutaneous injection of GP6 (20 mg/kg/day) during 10 weeks.
At the end of the experiment mice were sacrificed, serum samples were extracted, tissues were weighted and part was fixed in paraformaldehyde for histology studies and part immediately frozen at −80 C for mRNA and protein expression studies.
The Histology studies, AST and ALT measurements as well the RNA analysis were performed as described in example 4.

[3] = 20 mg/kg/day sc, 10 weeks, vs vehicle
[4] = 20 mg/kg/day sc, 10 weeks, blind pathologist, lipid reduction corroborated

CC[C@@H](C)[C@@H](NC(=O)[C@H](NC(=O)CNC(=O)[C@@H](CCC(=O)O)NC(=O)[C@H]1CCCN1C(=O)[C@@H](CC(=O)O)NC(=O)[C@@H](Cc1c[nH]c2ccccc12)NC(=O)[C@H](NC(=O)[C@@H](CCCNC(=N)N)NC(=O)[C@H](NC(=O)[C@@H](CCC(=O)O)NC(=O)[C@@H](Cc1ccccc1)NC(=O)[C@@H](CO)NC(=O)[C@@H](CO)NC(=O)[C@@H](CO)NC(=O)[C@H](NC(=O)[C@@H](CCCCN)NC(=O)[C@H](N)[C@H](C)O)[C@H](C)O)C(C)C)[C@H](C)O)C(C)C)C(=O)N[C@H](Cc1ccccc1)C(=O)N[C@H](Cc1ccc(O)cc1)C(=O)O [GP6]
AST serum levels ([1]; 20 mg/kg/day sc, 10 weeks): reduced significantly
hepatic fibrosis (picrosirius staining) ([1]; 20 mg/kg/day sc, 10 weeks): did not showed hepatic fibrosis
total body weight gain ([1]; 20 mg/kg/day sc, 10 weeks): reducing total body weight gain
reduction of hepatic lipid accumulation compared with Telmisartan ([1]; 20 mg/kg/day sc, 10 weeks, vs Telmisartan 5 mg/kg/day): to a greater extend than Telmisartan treatment
Total body weight versus control mice ([1]; 20 mg/kg/day sc, 10 weeks, vs control diet mice): not significantly heavier than control mice
ACC mRNA levels in hepatic tissue [1, 3]: reduced the mRNA levels
Col1A1 expression in hepatic tissue [1, 3]: reduced expression levels
F480 mRNA levels (adipose tissue inflammation) [1, 3]: reduced expression
F480 mRNA levels in hepatic tissue [1, 3]: reduced expression
IL1β expression (adipose tissue inflammation) [1, 3]: reduced expression
PPARγ mRNA levels in hepatic tissue [1, 3]: reduced the mRNA levels
TGFβ1 expression in hepatic tissue [1, 3]: reduced expression levels
adipose tissue fibrosis (Col1A mRNA expression) [1, 3]: reduced adipose tissue fibrosis
heart fibrosis (Col1A1 mRNA expression) [1, 3]: reduced heart fibrosis
hepatic expression of TNFα [1, 3]: reduced the hepatic expression
liver triglyceride (TAG) content [1, 3]: reduced significantly
liver weight [1, 3]: reduced significantly
serum glucose levels [1, 3]: reduced the increase glucose levels
hepatic lipid accumulation (histology) ([1]; 20 mg/kg/day sc, 10 weeks, vs vehicle, H&E): reduced significantly
Brunt score [1, 4]: corroborated
Steatosis score [1, 4]: corroborated
Alanine transaminase (ALT) serum levels ([1]; sc, as stated in the summary for Example 6): reduction
mRNA levels of collagen 1A1 induced by TGFβ1 (LX-2 cells): reduced the mRNA levels
liver weight [2]: did not show any significance between groups
reduction of ALT serum levels [2]: ~50%
reduction of Collagen (Col1A1) expression in hepatic tissue [2]: more than 50%
reduction of hepatic fibrosis (picrosirius staining, ImageJ) [2]: approximately 37%
reduction of hepatic inflammation (F4/80 mRNA levels) [2]: more than 50%
total body weight lost induced by CCl4 [2]: mice treated with vehicle lost more body weight when compared with GP6 treated mice
